Legend:
CS from rat kidney = test system: CS from rat kidney; set-up: method as in Matsuoka and Srere 1973; Lee et al. 1997; settings: ref Matsuoka and Srere 1973; Lee et al. 1997; cited from earlier work
[1] = test system: CS from Drosophila melanogaster; set-up: method as in Matsuoka and Srere 1973; Lee et al. 1997; settings: ref Matsuoka and Srere 1973; Lee et al. 1997; cited from earlier work
[2] = target: T1, recombinant PcGAPDH (rPcGAPDH) (Phanerodontia chrysosporium, UniProt Q01982); assay: GAPDH assay and steady-state kinetic analysis; format: biochemical, Phanerochaete chrysosporium; settings: 1 μM inhibitor, 5-min incubation, 0.6 mM GAP3 (Fig. 2C)
T1 construct: 6xHis-tag (pET-30) (cleaved yes); made in house; host or cells: E. coli BL21(DE3)pLysS
T1 sequence (Q01982 whole entry): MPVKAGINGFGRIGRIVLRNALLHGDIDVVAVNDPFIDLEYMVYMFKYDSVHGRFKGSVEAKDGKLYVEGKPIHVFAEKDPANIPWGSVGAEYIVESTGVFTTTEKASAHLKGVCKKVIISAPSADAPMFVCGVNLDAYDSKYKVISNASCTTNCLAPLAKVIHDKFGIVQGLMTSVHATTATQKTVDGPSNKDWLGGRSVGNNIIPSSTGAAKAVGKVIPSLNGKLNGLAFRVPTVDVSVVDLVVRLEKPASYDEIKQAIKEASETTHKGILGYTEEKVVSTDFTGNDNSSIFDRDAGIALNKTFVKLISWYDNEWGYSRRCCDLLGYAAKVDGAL
Description: GAPDH assay was performed as previously described (Campanale et al. [2003]). For steady-state kinetic analysis, the reaction mixture (1 ml) contained 40 mM phosphate (pH 7.6), 5.2 μg recombinant PcGAPDH (rPcGAPDH), 40 mM triethanolamine, 5 mM NAD^+, and 0.6–2 mM glyceraldehyde 3-phosphate (GAP3). Reactions were monitored by the increase in absorbance at 340 nm (ε 6220 M^–1 cm^–1) for 1 min, and initial velocities were determined. Inhibitory experiments were done in the presence of 0–2.5 μM hemin. To examine the effect of hemin on GAPDH kinetics, PcGAPDH was incubated with either buffer (control) or hemin for 5 min prior to initiating the reaction. Kinetic parameters were determined from Lineweaver–Burk plots, and Ki values were determined from the secondary plot of each slope of the Lineweaver–Burk plots. Immediately prior to use, hemin was dissolved at 10 mM in 0.1 M NaOH and diluted with 40 mM Tris–HCl (pH 7.5).
Fig. 2 Heterologous expression of PcGAPDH and inhibitory effect of hemin on GAPDH reaction. A M, molecular weight marker; lane 1, rPcGAPDH-His-tag; lane 2, His-tag-cleaved rPcGAPDH. B Reaction mixtures containing 2.5 nM rPcGAPDH, 40 mM phosphate (pH 7.6), 40 mM triethanolamine, 5 mM NAD^+, and 0.6–2 mM GAP3. […] Inset: secondary plots of each slope of Lineweaver–Burk plots against the concentration of hemin for determining inhibition constants. C Reaction mixtures containing 2.5 nM rPcGAPDH, 40 mM phosphate (pH 7.6), 40 mM triethanolamine, 5 mM NAD^+, and 0.6 mM GAP3. Reactions were started by adding substrates followed by 5-min incubation with either buffer or 1 μM inhibitor (hemin or protoporphyrin IX, PPIX). […] All experiments were performed in triplicate. Bars indicated as mean values ± standard deviation (error bars)

[3] = target: T2, rPcCS (mitochondrial citrate synthase) (Phanerodontia chrysosporium, UniProt Q0EAA7); assay: CS assay (DTNB method) and steady-state kinetic analysis; format: biochemical, Phanerochaete chrysosporium; settings: at a concentration more than 10 times the inhibitory concentration of hemin (data not shown)
T2 sequence (Q0EAA7 1-446): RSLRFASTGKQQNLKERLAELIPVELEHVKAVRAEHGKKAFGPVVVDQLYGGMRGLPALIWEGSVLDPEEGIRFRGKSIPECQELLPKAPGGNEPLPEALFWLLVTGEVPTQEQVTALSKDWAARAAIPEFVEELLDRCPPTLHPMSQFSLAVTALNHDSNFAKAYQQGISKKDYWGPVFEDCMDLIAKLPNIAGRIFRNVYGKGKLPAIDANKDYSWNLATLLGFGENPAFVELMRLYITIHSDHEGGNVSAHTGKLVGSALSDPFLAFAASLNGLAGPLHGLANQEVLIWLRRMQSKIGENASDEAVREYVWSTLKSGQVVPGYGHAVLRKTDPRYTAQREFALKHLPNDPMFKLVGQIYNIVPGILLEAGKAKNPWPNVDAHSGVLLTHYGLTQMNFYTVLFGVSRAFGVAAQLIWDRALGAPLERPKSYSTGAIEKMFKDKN
Description: CS was assayed by the 5, 5′-dithiobis-2-nitrobenzoic acid (DTNB) method, as described previously (Srere et al. [1963]). […] CS catalyzes the reaction of OAA with AcCoA, generating citrate and CoA. Thus, reactions were monitored by the amount of released CoA, which was followed at 412 nm (ε 13 600 M^–1cm^–1) by the formation of 2-nitro-5-mercaptobenzoic acid, via the reaction of CoA with DTNB. Reactions were monitored for 1 min, and initial velocity was determined. […] Inhibition studies were carried out in the presence of 0–2.5 μM hemin as described above. Kinetic parameters were determined from Lineweaver–Burk plots, and Ki values were determined from the secondary plot of the slopes of the Lineweaver–Burk plots. Hemin and OAA solutions were prepared immediately prior to use.
Fig. 5 Inhibitory effect of hemin on PcCS reaction. […] Reaction mixtures contained 1.5 nM rPcCS, 40 mM Tris-HCl (pH 8.5), and 120 μM DTNB. Fixed substrate was added at 12 μM and variable substrate at 3–12 μM. […] Insets: secondary plots of each slope of Lineweaver–Burk plots against the concentration of hemin for determining inhibition constants.

[4] = substrate: O=C(O)CC(=O)C(=O)O; assay: purified protein, by the assay type; settings: other: rPcCS, substrate OAA; pH 8.5
[5] = substrate: CC(=O)SCCNC(=O)CCNC(=O)[C@H](O)C(C)(C)COP(=O)(O)OP(=O)(O)OC[C@H]1O[C@@H](n2cnc3c(N)ncnc32)[C@H](O)[C@@H]1OP(=O)(O)O; assay: purified protein, by the assay type; settings: other: rPcCS, substrate AcCoA; pH 8.5

CC(C)(COP(=O)(O)OP(=O)(O)OC[C@H]1O[C@@H](n2cnc3c(N)ncnc32)[C@H](O)[C@@H]1OP(=O)(O)O)[C@@H](O)C(=O)NCCC(=O)NCCS [CoA, coenzyme A]
mode of inhibition (CS from rat kidney): competitive inhibitors of AcCoA and as non-competitive inhibitors of OAA
mode of inhibition [1]: competitive inhibitors of AcCoA and as non-competitive inhibitors of OAA

CCC(=O)SCCNC(=O)CCNC(=O)[C@H](O)C(C)(C)COP(=O)(O)OP(=O)(O)OC[C@H]1O[C@@H](n2cnc3c(N)ncnc32)[C@H](O)[C@@H]1OP(=O)(O)O [propionyl-CoA]
mode of inhibition (CS from rat kidney): competitive inhibitors of AcCoA and as non-competitive inhibitors of OAA
mode of inhibition [1]: competitive inhibitors of AcCoA and as non-competitive inhibitors of OAA

C=CC1=C(C)c2cc3[nH]c(cc4nc(cc5[nH]c(cc1n2)c(C)c5CCC(=O)O)C(CCC(=O)O)=C4C)c(C)c3C=C [protoporphyrin IX]
inhibition of PcGAPDH activity [2]: as effectively as by hemin
inhibition of PcCS [3]: slightly inhibited

B1: rPcCS (mitochondrial citrate synthase) (Phanerodontia chrysosporium) (protein)
chain: RSLRFASTGKQQNLKERLAELIPVELEHVKAVRAEHGKKAFGPVVVDQLYGGMRGLPALIWEGSVLDPEEGIRFRGKSIPECQELLPKAPGGNEPLPEALFWLLVTGEVPTQEQVTALSKDWAARAAIPEFVEELLDRCPPTLHPMSQFSLAVTALNHDSNFAKAYQQGISKKDYWGPVFEDCMDLIAKLPNIAGRIFRNVYGKGKLPAIDANKDYSWNLATLLGFGENPAFVELMRLYITIHSDHEGGNVSAHTGKLVGSALSDPFLAFAASLNGLAGPLHGLANQEVLIWLRRMQSKIGENASDEAVREYVWSTLKSGQVVPGYGHAVLRKTDPRYTAQREFALKHLPNDPMFKLVGQIYNIVPGILLEAGKAKNPWPNVDAHSGVLLTHYGLTQMNFYTVLFGVSRAFGVAAQLIWDRALGAPLERPKSYSTGAIEKMFKDKN
Km [4]: 6.2 µM
Vmax [4]: 31.4 nmol/min/mL
Km [5]: 4.2 µM
Vmax [5]: 25.8 nmol/min/mL
